# Assays:
# [1] = test system: NMDA (N-methyl-D-aspartate) receptors; conditions: cited from earlier work
# kainate receptors = conditions: cited from earlier work
# AMPA receptors = conditions: cited from earlier work
# AMPA type receptors = test: 3H-AMPA binding (Test 1); conditions: rat cerebral cortical membrane homogenate; 5 nM 3H-AMPA; pH 7.1; 0° C., 30 min; read-out: TEST 1 IC50 (displacement of 50% of the specific binding of 3H-AMPA)
# Excerpt: AMPA receptor binding may be studied by using ^3 H-AMPA as radioligand.
# The pharmacological properties of the compounds of the present invention can be illustrated by determining their capability for displacing radioactively labelled 2-amino-3-hydroxy-5-methyl-4-isoxazolepropionic acid (AMPA) from the AMPA type receptors.
# The displacement activity of the compounds may be shown by determining the IC50 value which represents the concentration (μM) which causes a displacement of 50% of the specific binding of ^3 H-AMPA.
# ^3 H-AMPA binding (Test 1)
# 500 μl of thawed rat cerebral cortical membrane homogenate in Tris-HCl (30 mM), CaCl2 (2.5 mM) and KSCN (100 mM) pH 7.1 were incubated at 0° C. for 30 min. with 25 μl ^3 H-AMPA (5 nM final concentration) and the test compound and buffer. Nonspecific binding was determined by incubation with L-glutamic acid (600 μM final concentration). The binding reaction was terminated by adding 5 ml of ice-cold buffer followed by filtration through Whatman GF/C glass fibre filters and 2×5 ml wash with ice-cold buffer. Bound radioactivity was measured by scintillation counting. IC50 was determined by Hill analysis of at least four concentrations of test compound.
# [2] = test system: quisqualic acid stimulated spreading depression in chicken retina; test: Spreading depression (Test 2): antagonism of quisqualic acid stimulated spreading depression in chicken retina; assay type: cell-based; conditions: Gallus gallus, 0.25 h, quisqualate 1 μg/ml, 26° C., 15 min incubation with test compound, read-out: TEST 2 IC50 (50% maximal inhibition of quisqualic acid stimulated spreading depression)
# Excerpt: The influence of glutamic acid analogues on secondary effects of glutamate receptor interactions may be studied in vitro by using the phenomenon of spreading depression in chicken retina. Such experiments will provide information as to the efficacies (agonist/antagonist) of the test substances. This is in contrast to binding studies, which only provide information on the affinities of the compounds for the receptor.
# The pharmacological properties of the compounds of the present invention can be illustrated by determining their capability for displacing radioactively labelled 2-amino-3-hydroxy-5-methyl-4-isoxazolepropionic acid (AMPA) from the AMPA type receptors. […]
# The eyes were initially incubated in normal P.S.S. for 15-30 min. and then transferred to P.S.S. containing quisqualate (1 μg/ml). […] The time taken for an S.D. to start in each eye was measured.
# After a further 15 min. of incubation in normal P.S.S. the eyes were transferred to normal P.S.S. containing the test compound and incubated for 15 min. […] The time taken for an S.D. to start in each eye was measured again. The eyes were then placed back in normal P.S.S. and after 15 min. the time taken for S.D. to start was measured again, in order to assess the degree of recovery from any drug effects. […]
structure (smiles),measurement,setting,value
"O=C(O)C1CN(CCCP(=O)(O)O)CCN1 (racemic) [CPP, 3-[(±)-2-carboxy-piperazin-4-yl]-propyl-1-phosphonic acid]",antagonist activity at NMDA receptors,[1],most potent and selective antagonists
"O=C(O)[C@@H]1CCCN[C@H]1C(=O)O (relative stereo) [trans-2,3-PDA, trans-2,3-piperidine dicarboxylic acid]",agonist activity on NMDA receptors,[1],strong to moderate agonist activity
N[C@@H](CCC(=O)NCC(=O)O)C(=O)O [3-glutamyl-glycine],antagonism / selectivity at kainate receptors,kainate receptors; O. Goldberg et al. 1981,some selectivity for kainate receptors
"Cc1onc(O)c1CC(N)C(=O)O (stereo not drawn) [AMPA, 2-amino-3-hydroxy-5-methyl-4-isoxazolepropionic acid]",agonist activity at AMPA receptors,AMPA receptors,activated selectively
N[C@H](CCCC(=O)O)C(=O)O [D-2-amino-adipic acid],antagonist activity at NMDA receptors,[1],moderate antagonist activity
"N[C@H](CCCP(=O)(O)O)C(=O)O [D-APV, 2-amino-5-phosphono-valeric acid]",antagonist activity at NMDA receptors,[1],most potent and selective antagonists
N[C@H](CCC(=O)O)C(=O)O [D-glutamic acid],agonist activity on NMDA receptors,[1],strong to moderate agonist activity
"O=c1[nH]c2cc(-n3ccnc3)ccc2n2c(=O)[nH]nc12 [Example 1, 7-(1H-Imidazol-1-yl)[1,2,4]triazolo[4,3-a]quinoxaline-1,4(2H,5H)-dione]",IC50,AMPA type receptors,180 nM
same,IC50,[2],3900 nM
"O=c1[nH]c2cc(-n3ccnc3)c(C(F)(F)F)cc2n2c(=O)[nH]nc12 [Example 2, 7-(1H-Imidazol-1-yl)-8-trifluoromethyl[1,2,4]triazolo[4,3-a]quinoxaline-1,4(2H,5H)-dione]",IC50,AMPA type receptors,1700 nM
same,IC50,[2],4800 nM
"CCOC(=O)CC[C@H](N)C(=O)OCC [GDEE, Glutamic acid diethyl ester]",sensitivity of excitatory responses to kainic acid to antagonism,kainate receptors,relatively insensitive
same,antagonist activity at AMPA receptors,AMPA receptors,selective but very weak antagonist
N[C@H](C(=O)O)c1cc(=O)[nH]o1 [Ibotenic acid],agonist activity on NMDA receptors,[1],strong to moderate agonist activity
N[C@@H](CCC(=O)O)C(=O)O [L-glutamic acid],agonist activity at AMPA receptors,AMPA receptors,potent agonists
N[C@@H](CCS(=O)(=O)O)C(=O)O [L-homocysteic acid],agonist activity on NMDA receptors,[1],strong to moderate agonist activity
N[C@H](CCC[C@H](N)C(=O)O)C(=O)O [diaminopimelic acid],antagonist activity at NMDA receptors,[1],moderate antagonist activity
N[C@@H](Cn1oc(=O)[nH]c1=O)C(=O)O [quisqualic acid],agonist activity at AMPA receptors,AMPA receptors,potent agonists

# Reference: patent US5532236A, “[1,2,4]triazolo[4,3-a]quinoxaline compounds” (priority 1993, dated 1996)
